Measurements reported in patent US20080200422A1, “Methods for reduction of adipose tissue mass” (priority 2007, published 2008).
Entries after “also recorded” stand apart in the source; their conditions may differ.

Columns and labels:
[1] = test system: leucine-deprived GCN2−/− mice; assay: C75 treatment of leucine-deprived GCN2−/− mice (liver steatosis, liver gene expression); assay type: in vivo; details: 20 mg/kg IP, three doses over seven days
Description: FIG. 5. Leucine deprivation induced-liver steatosis in GCN2^−/− mice is prevented by inhibition of FAS expression. GCN2 KO (−/−) mice were fed a leucine-deprived diets for seven days and were given C75 at a dose of 20 mg/Kg body weight in 200 μl RPMI or only RPMI every other day by IP injection during this period. A. Liver histology for GCN2 KO mice. Sections from animals were stained with oil red O, magnification 40×. Lipid deposits are detected as red-stained areas. B and C. Expression of FAS mRNA (B) and FAS protein (C, top: western blot; bottom: FAS protein relative to tubulin and normalized to control diet group within same strains of mice). *Effect of with C75 treatment fed on (−) leu diet versus without C75 treatment fed on (−) leu diet or control diet in GCN2 KO mice (two-tailed student t-test; p<0.0001.). [KO: control diet (n=6); (−) leu diet (n=5); (−) leu diet+C75 (n=3)]. D and E. Expression of PPARα and ACO mRNA. *Effect of with C75 treatment versus without C75 treatment on either (−) leu diet (*a: p<0.001) or control diet group (*b: p<0.001) in GCN2 KO mice (two-tailed student t-test; p<0.0001.). [KO: control diet (n=6); (−) leu diet (n=5); (−) leu diet+C75 (n=3)].
Wild-type C57BL/6J (GCN2^+/+) mice were obtained from Jackson Laboratories (Bar Harbor, Me.). […] Food intake and body weight were recorded daily. […] Body, liver and adipose tissue weight were recorded at the time of sacrifice. […]
Total RNA was prepared from frozen liver using an RNase mini kit (Qiagen). Quantitative RT-PCR was performed using co-amplification of GAPDH as an internal control. 1 μg of RNA was reverse transcribed with random primers (Promega) and then quantitative PCR was performed with the qPCR core kit for sybergreen I (Eurogentec) by 7000 sequence detection system (Applied Biosystems). […] At a specific threshold in the linear amplification stage, the cycle differences between amplified GAPDH and cDNA of interest were used to determine the relative quantity of genes of interest. […]

[2] = test system: liver FAS expression; details: 24 hrs after a single IP injection (30 mg/kg body weight); cited from earlier work
[3] = test system: GCN2−/− mice; assay: PPARα agonist WY compound in leucine-deprived GCN2−/− mice (fatty liver); assay type: in vivo

With `C=C1C(=O)OC(CCCCCCCC)C1C(=O)O` (centres unmarked) [C75] the “FAS mRNA and protein levels in liver” value [1] was “repressed”, the “levels of PPARα and ACO mRNA in liver” value [1] was “reduced” and the liver steatosis [1] was “prevented”. The “liver FAS expression” value [2] was “inhibit FAS expression significantly; also recorded: significant reductions”.
With `Cc1cccc(Nc2cc(Cl)nc(SCC(=O)O)n2)c1C` [WY compound] the “development of fatty liver” value [3] was “not able to prevent”.
